Source: paper PMC12195967, “Cobalt(II) Complexes of 4′–Nitro–Fenamic Acid: Characterization and Biological Evaluation” (Molecules, 2025)
Read-outs that look alike come from different tables or passages of the source.

Legend:
DPPH radical scavenging = conditions: compounds 0.1 mM, DPPH 0.1 mM in ethanol
Method: Antioxidant compounds able to neutralize DPPH radicals are increasingly recognized due to their capability of combating cancer, slowing down the aging process and regulating inflammation. As a result, they could potentially offer protection against rheumatoid arthritis and inflammation. […] In this experiment, NDGA and BHT were used as reference compounds and measurements took place at 30 min and 60 min. […] Such low scavenging activity of DPPH radicals is rather common for metal–NSAID complexes.
(§1) S1 Antioxidant activity assay
(§2) The antioxidant activity of the compound was evaluated via the ability to scavenge in vitro free radicals such as DPPH and ABTS and to reduce H2O2. All the experiments were carried out at least in triplicate and the standard deviation of absorbance was less than 10% […]
S1.1 Determination of the reducing activity of the radical DPPH
To an ethanolic solution of DPPH (0.1 mM) an equal volume solution of the compounds (0.1 mM) in ethanol was added. Absolute ethanol was also used as control solution. The absorbance at 517 nm was recorded at room temperature after 30 and 60 min in order to examine the possible existence of a potential time−dependence of the DPPH radical scavenging activity.[1] The DPPH−scavenging activity of the compounds was expressed as the percentage reduction of the absorbance values of the initial DPPH solution (DPPH%). NDGA and BHT were used as reference compounds. […]

CT DNA = conditions: cited from earlier work
[1] = Reduction of hydrogen peroxide; conditions: compounds 0.1 mM; phosphate buffer pH 7.4; 10 min
Method: Harmful hydroxyl radicals are released when hydrogen peroxide interacts with transition metal ions, leading to oxidative stress. Consequently, both oxidative stress and the production of reactive oxygen species could be reduced by ^•OH scavengers and H2O2 reducing agents.
as §1
The antioxidant activity of the compound was evaluated via the ability to scavenge in vitro free radicals such as DPPH and ABTS and to reduce H2O2. […]
S1.3 Reduction of hydrogen peroxide
The ability of the compounds to reduce hydrogen peroxide (H2O2) was estimated according to the method described in the literature. The reaction mixture contained 20 μL of each of the tested compounds (0.1 mM) and 5 μL H2O2 solution (40 mM) in phosphate […]
buffer (50 mM, pH 7.4). The absorbance was measured at 230 nm after 10 min. The antioxidant activity (reduction of H2O2) of the compounds was expressed as the percentage decrease of the initial H2O2 solution (H2O2%). […]

[2] = ABTS radical cation scavenging; conditions: compounds 0.1 mM; absorbance 734 nm after 1 min
Method: The ABTS-scavenging was measured through the discoloration of a dark green solution containing the cationic radical ABTS^•+, which was induced from the oxidation derived from hydrogen-donating antioxidants, either complexes or standards, and is often considered a marker of total oxidation capacity. […] Such an increase in activity upon coordination is expected for metal–NSAID complexes.
as §1, §2
S1.2 Assay of radical cation ABTS−scavenging activity
The ABTS assay was performed to determine the activity of the compounds to scavenge the radical cation ABTS. Initially, a water solution of ABTS was prepared (2 mM).
ABTS radical cation (ABTS+·) was produced by the reaction of ABTS stock solution with potassium persulfate (0.17 mM) and the mixture was stored in the dark at room temperature for 12−16 h before its use. The ABTS was oxidized incompletely because the stoichiometric reaction ratio of ABTS and potassium persulfate is 1:0.5. The absorbance became maximal and stable only after more than 6 h of reaction although the oxidation of the ABTS started immediately. The radical was stable in this form for more than 2 days when allowed to stand in the dark at room temperature. Afterwards, the ABTS+· solution was diluted in ethanol to an absorbance of 0.70 at 734 nm and 10 μL of diluted compounds or standards (0.1 mM) in DMSO were added. The absorbance was recorded out exactly 1 min after initial mixing.
The ABTS–radical scavenging activity of the compounds was expressed as the percentage inhibition of the absorbance of the initial ABTS solution (ABTS%). […]

[3] = commercially available fenamates

Cc1cc(C(C)(C)C)c(O)c(C(C)(C)C)c1 [BHT, butylated hydroxytoluene, reference compound]
%DPPH-scavenging ability (DPPH%), 30 min (DPPH radical scavenging): 70.83 ± 0.03% | %DPPH-scavenging ability (DPPH%), 60 min (DPPH radical scavenging): 83.39 ± 0.39%

CC[n+]1c(-c2ccccc2)c2cc(N)ccc2c2ccc(N)cc21 [EB, ethidium bromide]
DNA-binding constant Kb (CT DNA; classic DNA intercalator): 123000 M⁻¹

O=C1O[C@H]([C@@H](O)CO)C(O)=C1O [L-ascorbic acid, reference compound]
H2O2-reducing ability (H2O2%) [1]: 58.90 ± 0.52%

CC(Cc1ccc(O)c(O)c1)C(C)Cc1ccc(O)c(O)c1 (stereo not shown) [NDGA, nordihydroguaiaretic acid, reference compound]
%DPPH-scavenging ability (DPPH%), 30 min (DPPH radical scavenging): 94.33 ± 0.11% | %DPPH-scavenging ability (DPPH%), 60 min (DPPH radical scavenging): 90.47 ± 0.42%

Cc1c(C)c2c(c(C)c1O)CCC(C)(C(=O)O)O2 (stereo not shown) [Trolox, 6–hydroxy–2,5,7,8–tetramethylchroman–2–carboxylic acid, reference compound]
%ABTS radical scavenging activity (ABTS%) [2]: 96.50 ± 0.05%

O=C(O)c1ccccc1Nc1cccc(C(F)(F)F)c1 [flufenamic acid]
DNA-binding constant Kb (CT DNA; [3]): 270000 M⁻¹

Cc1cccc(Nc2ccccc2C(=O)O)c1C [mefenamic acid]
DNA-binding constant Kb (CT DNA; [3]): 105000 M⁻¹

Cc1c(Cl)cccc1Nc1ccccc1C(=O)O [tolfenamic acid]
DNA-binding constant Kb (CT DNA; [3]): 50000 M⁻¹
